# What was measured:
# [1] = molecular target: T1, Phosphatidylinositol 5-phosphate 4-kinase type-2 beta (Homo sapiens) (UniProt P78356); assay: Selectivity interaction (Kinase panel (KiNativ target engagement assay in Jurkat cells)) EUB0001635a PIP4K2B; assay type: cell-based; conditions: Selectivity number of off-targets 0.0, Selectivity number of targets 233.0, Source Knowledge https://www.sciencedirect.com/science/article/pii/S2451945619300674?via%3Dihub, at 1 µM
# T1 sequence (whole entry): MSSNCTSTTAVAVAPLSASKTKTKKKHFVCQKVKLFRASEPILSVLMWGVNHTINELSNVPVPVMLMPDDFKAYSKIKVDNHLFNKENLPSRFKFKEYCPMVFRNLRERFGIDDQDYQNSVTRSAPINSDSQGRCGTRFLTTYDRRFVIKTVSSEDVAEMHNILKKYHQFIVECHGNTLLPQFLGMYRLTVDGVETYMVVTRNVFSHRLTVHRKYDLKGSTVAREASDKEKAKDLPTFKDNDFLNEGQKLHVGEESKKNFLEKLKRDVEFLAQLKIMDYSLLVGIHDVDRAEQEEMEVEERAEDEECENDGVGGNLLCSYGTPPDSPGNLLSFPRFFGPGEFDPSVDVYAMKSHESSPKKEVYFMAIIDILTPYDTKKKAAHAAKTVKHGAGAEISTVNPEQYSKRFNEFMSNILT
# [2] = molecular target: Receptor-interacting serine/threonine-protein kinase 2 (Homo sapiens, UniProt O43353); assay: Selectivity interaction (KinomeScan (DiscoverX)) EUB0000595a RIPK2; conditions: at 10 µM
# Receptor-interacting serine/threonine-protein kinase 2, sequence (O43353 whole entry): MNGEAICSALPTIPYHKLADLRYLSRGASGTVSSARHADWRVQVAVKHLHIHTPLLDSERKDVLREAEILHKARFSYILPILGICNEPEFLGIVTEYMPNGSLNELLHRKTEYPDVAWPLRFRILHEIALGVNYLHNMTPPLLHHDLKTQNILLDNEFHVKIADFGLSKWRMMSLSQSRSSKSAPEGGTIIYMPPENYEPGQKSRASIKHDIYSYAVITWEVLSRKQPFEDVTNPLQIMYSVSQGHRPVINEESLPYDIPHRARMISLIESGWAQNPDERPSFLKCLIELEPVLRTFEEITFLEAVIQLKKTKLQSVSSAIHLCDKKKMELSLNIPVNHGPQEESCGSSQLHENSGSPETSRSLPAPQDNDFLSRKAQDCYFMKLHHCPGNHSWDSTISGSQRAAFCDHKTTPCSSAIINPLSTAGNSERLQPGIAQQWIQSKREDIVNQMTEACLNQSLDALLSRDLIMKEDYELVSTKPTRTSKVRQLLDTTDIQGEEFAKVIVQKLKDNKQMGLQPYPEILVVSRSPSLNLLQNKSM
# [3] = molecular target: Serine/threonine-protein kinase MRCK beta (Homo sapiens) (UniProt Q9Y5S2); assay: Selectivity interaction (KinomeScan (DiscoverX)) EUB0000045b CDC42BPB
# Serine/threonine-protein kinase MRCK beta (Homo sapiens), sequence (Q9Y5S2 whole entry): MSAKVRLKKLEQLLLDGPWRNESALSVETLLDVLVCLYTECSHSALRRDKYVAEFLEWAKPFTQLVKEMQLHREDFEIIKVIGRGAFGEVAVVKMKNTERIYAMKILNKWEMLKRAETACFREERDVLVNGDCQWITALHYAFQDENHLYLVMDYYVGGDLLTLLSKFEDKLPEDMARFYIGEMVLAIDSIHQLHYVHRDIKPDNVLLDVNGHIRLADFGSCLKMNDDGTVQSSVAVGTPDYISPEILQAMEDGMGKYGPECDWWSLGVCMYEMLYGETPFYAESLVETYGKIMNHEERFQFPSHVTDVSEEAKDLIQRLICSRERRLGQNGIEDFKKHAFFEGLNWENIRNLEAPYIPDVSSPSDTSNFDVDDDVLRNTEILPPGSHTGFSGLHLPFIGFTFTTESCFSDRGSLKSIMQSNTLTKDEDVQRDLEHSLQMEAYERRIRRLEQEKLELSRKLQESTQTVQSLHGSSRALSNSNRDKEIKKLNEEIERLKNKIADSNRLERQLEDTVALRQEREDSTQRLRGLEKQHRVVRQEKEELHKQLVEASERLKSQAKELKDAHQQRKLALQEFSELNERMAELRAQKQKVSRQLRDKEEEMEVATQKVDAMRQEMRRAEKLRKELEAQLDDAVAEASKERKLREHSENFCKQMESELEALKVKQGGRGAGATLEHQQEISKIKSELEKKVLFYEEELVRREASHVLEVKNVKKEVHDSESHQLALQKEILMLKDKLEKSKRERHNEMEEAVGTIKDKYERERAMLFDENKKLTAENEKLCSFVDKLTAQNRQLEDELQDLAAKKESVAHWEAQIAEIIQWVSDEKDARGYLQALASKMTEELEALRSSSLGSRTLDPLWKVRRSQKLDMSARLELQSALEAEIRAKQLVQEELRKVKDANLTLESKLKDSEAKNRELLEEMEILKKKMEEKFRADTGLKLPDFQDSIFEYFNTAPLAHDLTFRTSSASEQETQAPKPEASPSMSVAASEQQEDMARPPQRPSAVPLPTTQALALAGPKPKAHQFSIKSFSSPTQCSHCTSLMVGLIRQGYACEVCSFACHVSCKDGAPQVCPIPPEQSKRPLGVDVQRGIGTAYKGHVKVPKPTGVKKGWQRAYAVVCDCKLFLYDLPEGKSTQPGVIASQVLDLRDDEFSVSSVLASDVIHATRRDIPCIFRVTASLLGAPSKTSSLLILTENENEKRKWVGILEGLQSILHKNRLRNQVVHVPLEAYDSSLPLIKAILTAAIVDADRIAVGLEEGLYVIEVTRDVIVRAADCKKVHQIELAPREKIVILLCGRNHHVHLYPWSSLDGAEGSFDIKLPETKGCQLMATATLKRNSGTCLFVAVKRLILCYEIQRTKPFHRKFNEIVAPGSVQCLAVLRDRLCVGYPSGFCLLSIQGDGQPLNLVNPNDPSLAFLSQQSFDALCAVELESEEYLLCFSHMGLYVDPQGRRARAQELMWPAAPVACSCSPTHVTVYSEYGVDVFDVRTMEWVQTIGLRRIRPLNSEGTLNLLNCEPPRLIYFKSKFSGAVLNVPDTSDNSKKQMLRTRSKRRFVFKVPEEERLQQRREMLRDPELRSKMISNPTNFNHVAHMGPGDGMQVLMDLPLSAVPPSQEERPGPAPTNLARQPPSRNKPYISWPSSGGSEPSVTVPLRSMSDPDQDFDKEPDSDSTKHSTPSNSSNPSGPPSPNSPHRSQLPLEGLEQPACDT
# [4] = molecular target: Calcium/calmodulin-dependent protein kinase type II subunit alpha (Homo sapiens, UniProt Q9UQM7); assay: Selectivity interaction (Upstate Kinase Profiler service (Millipore)) EUB0000056c CAMK2A; conditions: at 1 µM
# Calcium/calmodulin-dependent protein kinase type II subunit alpha, sequence (Q9UQM7 whole entry): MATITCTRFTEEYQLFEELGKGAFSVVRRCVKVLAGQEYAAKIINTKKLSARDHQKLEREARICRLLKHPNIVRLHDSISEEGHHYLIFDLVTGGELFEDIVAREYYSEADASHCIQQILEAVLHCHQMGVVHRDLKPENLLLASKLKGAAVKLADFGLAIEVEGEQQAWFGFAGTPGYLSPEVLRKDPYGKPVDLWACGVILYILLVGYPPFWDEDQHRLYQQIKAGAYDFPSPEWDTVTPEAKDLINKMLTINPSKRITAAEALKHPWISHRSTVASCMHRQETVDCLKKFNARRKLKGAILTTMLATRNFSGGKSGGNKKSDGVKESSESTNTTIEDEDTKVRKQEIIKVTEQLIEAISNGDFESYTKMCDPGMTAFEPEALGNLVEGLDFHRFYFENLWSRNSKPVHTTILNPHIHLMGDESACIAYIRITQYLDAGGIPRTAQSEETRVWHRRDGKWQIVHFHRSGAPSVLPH
# [5] = molecular target: T2, Serine/threonine-protein kinase STK11 (Homo sapiens) (UniProt Q15831); assay: Selectivity interaction (Kinase panel (literature)) EUB0001199aCl STK11; conditions: at 1 µM
# T2 sequence (whole entry): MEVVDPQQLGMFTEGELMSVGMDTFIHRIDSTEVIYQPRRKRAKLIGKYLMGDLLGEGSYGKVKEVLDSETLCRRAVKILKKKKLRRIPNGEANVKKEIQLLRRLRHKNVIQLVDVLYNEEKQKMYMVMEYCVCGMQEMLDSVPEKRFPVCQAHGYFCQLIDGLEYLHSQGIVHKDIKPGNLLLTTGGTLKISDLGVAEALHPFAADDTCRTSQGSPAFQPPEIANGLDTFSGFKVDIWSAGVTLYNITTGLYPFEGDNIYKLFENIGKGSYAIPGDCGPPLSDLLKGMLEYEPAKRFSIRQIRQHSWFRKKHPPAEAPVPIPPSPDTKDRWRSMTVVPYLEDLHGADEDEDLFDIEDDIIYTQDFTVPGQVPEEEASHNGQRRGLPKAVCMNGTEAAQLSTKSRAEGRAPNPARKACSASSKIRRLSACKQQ
# [6] = molecular target: Protein arginine N-methyltransferase 5 (Homo sapiens, UniProt O14744); assay: Selectivity interaction (Methyltransferase screen (Scintillation proximity assays)) EUB0000255b PRMT5
# Protein arginine N-methyltransferase 5, sequence (O14744 whole entry): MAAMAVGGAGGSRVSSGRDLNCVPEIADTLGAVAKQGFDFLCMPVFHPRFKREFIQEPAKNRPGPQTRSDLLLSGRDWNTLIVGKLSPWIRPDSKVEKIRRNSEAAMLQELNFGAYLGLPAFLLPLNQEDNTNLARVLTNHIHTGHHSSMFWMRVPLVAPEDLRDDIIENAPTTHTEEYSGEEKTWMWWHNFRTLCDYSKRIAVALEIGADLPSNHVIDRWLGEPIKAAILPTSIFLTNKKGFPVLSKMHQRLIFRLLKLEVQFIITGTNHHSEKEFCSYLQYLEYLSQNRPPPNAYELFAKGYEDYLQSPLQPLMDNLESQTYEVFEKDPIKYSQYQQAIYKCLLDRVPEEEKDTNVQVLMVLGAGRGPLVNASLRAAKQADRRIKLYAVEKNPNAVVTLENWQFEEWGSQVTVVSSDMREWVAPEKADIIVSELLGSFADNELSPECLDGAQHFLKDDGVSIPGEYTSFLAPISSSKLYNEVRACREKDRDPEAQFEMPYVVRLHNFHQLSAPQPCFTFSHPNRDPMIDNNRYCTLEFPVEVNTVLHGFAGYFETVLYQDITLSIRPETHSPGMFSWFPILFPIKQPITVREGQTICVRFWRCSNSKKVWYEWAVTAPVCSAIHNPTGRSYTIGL
# [7] = molecular target: T3, Aurora kinase A (Homo sapiens) (UniProt O14965); assay: Selectivity interaction (ActivX KiNativ screen (kinase selectivity in THP-1 cell lysates)) EUB0000639a STK6; assay type: subcellular; conditions: lysate, at 0.04 µM
# T3 sequence (whole entry): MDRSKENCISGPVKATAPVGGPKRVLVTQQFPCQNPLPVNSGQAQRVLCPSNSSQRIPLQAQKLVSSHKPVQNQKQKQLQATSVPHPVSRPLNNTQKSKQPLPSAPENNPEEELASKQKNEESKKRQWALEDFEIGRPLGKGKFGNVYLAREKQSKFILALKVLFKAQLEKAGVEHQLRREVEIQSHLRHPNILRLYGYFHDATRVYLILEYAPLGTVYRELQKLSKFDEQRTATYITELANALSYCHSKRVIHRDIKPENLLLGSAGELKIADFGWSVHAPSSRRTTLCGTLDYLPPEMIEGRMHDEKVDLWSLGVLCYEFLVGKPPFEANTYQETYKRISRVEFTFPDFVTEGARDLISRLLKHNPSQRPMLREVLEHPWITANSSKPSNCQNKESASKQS
# [8] = tested on: Epidermal growth factor receptor (Homo sapiens), P00533 [UNDEFINED MUTATION]; assay: Selectivity interaction (KinomeScan (DiscoverX)) EUB0000655a EGFR; conditions: at 10 µM
# Epidermal growth factor receptor (Homo sapiens), P00533 [UNDEFINED MUTATION], sequence (P00533 whole entry, looked up, change not shown): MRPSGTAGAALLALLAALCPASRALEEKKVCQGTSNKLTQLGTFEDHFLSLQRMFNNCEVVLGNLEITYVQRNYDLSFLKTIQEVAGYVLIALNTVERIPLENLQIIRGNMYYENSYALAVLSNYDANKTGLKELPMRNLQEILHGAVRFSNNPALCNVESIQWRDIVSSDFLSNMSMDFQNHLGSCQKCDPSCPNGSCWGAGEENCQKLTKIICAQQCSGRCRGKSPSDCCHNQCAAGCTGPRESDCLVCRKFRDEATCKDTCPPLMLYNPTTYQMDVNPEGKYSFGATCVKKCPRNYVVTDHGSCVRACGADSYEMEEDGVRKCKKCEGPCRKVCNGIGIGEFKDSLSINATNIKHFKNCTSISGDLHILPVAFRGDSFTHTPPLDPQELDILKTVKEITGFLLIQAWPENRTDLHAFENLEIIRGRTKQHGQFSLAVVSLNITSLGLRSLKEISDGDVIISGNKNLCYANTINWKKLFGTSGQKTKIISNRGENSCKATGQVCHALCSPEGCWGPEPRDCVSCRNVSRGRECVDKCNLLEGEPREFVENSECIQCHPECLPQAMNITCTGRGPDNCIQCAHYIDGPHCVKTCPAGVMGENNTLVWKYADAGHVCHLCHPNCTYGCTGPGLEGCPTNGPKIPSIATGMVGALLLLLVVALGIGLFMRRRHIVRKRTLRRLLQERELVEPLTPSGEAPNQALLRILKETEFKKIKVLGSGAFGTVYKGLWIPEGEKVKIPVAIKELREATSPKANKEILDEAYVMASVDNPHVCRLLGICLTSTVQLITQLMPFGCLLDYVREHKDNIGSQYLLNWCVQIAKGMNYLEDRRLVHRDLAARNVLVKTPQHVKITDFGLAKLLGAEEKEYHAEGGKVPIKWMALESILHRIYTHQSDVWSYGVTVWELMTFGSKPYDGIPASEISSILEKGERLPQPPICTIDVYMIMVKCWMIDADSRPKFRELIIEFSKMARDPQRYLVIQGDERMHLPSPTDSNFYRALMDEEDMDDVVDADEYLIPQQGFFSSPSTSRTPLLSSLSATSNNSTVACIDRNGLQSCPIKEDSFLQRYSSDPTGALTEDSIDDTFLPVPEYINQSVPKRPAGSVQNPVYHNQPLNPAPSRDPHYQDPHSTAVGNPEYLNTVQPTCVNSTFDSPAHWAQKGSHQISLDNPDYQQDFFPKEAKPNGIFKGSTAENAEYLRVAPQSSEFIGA
# [9] = molecular target: T4, Tyrosine-protein kinase JAK3 (Homo sapiens) (UniProt P52333); assay: Selectivity interaction (KinomeScan (DiscoverX)) EUB0000092b JAK3; conditions: at 10 µM
# T4 sequence (whole entry): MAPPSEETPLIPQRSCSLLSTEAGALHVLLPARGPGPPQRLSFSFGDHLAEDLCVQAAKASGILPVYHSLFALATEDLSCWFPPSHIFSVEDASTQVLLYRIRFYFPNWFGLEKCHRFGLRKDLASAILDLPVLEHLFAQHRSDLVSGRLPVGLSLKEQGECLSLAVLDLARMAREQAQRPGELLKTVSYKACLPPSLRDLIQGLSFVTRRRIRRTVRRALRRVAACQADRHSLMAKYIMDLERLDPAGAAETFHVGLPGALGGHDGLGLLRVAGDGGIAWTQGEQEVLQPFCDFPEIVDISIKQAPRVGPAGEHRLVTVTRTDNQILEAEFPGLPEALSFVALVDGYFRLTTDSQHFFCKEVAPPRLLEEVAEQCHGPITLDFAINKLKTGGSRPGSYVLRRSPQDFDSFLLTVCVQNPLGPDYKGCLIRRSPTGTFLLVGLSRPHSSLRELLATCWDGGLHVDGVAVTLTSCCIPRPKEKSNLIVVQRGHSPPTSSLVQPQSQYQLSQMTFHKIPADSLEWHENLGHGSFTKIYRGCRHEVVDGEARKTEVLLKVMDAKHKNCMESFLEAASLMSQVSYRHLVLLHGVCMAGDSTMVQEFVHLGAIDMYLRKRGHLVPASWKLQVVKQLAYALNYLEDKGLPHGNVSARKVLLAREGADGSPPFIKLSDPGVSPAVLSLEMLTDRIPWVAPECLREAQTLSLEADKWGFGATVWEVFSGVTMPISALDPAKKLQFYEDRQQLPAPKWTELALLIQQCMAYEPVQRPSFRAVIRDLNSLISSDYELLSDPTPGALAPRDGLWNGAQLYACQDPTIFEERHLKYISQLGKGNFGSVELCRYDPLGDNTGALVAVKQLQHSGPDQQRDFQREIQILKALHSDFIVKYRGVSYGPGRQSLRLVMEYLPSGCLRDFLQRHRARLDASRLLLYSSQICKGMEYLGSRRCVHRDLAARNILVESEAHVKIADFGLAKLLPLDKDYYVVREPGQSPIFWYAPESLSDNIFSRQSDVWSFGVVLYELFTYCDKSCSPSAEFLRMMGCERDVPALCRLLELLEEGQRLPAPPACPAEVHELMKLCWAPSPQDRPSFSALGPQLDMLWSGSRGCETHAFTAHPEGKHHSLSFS
smiles,measurement,setting,value
C=CC(=O)Nc1ccc(C(=O)Nc2[nH]nc3c2CN(C(=O)N[C@H](CN(C)C)c2ccccc2)C3(C)C)cc1,% of engagement,[1],-4.5%
COCC(=O)NC/C=C/c1ccc2ncnc(Nc3ccc(Oc4ccc(C)nc4)c(C)c3)c2c1 [CP-724714],% of control,[2],26%
C=CC(=O)Nc1cc(-n2c(=O)ccc3cnc4ccc(-c5ccc(NS(C)(=O)=O)cc5)cc4c32)ccc1C,% of control,[3]; at 1 µM,100%
same,% of control,[3]; at 10 µM,100%
Cc1ccc(-c2ccc3c(ccc4sc5c(c43)NC[C@@H](C)NC5=O)n2)cn1,% of inhibition,[4],87%
CN1Cc2nccc(-c3cn(C)nc3-c3ccc(F)cc3)c2C1=O,% of inhibition,[5],3%
COCCN1CCC(c2cc(CN(C)C(=O)c3cccc(Oc4ccccc4)c3)ccn2)CC1,% activity,[6]; at 1 µM,> 95%
same,% activity,[6]; at 10 µM,> 90%
CC[C@@H]1[C@H](F)C(=O)N[C@@H]1COc1nccc2cc(C(N)=O)c(OC)cc12 [ZIMLOVISERTIB],% of inhibition,[7],-1.3%
CN(C)CCOc1ccc(-c2nc(-c3ccncc3)c(-c3ccc4c(c3)CC/C4=N\O)[nH]2)cc1,% of control,[8],54%
CCC(=O)N1CCN(c2ccc(-n3c(=O)ccc4cnc5ccc(-c6cnc7ccccc7c6)cc5c43)cc2C(F)(F)F)CC1,% of control,[9],100%
